The subject of data set [1] is histone H3 acetylation (lysine 9+14) in HeLa cervical carcinoma cells. In words: Cellular histone H3 acetylation assay. In kind it is cell-based. The following applies: Homo sapiens, 24 h incubation with compound, read-out: EC50 (histone H3 acetylating cellular potency). An excerpt: To assess the cellular efficacy of an histone deactylase inhibitor in vitro, an assay is set up in black clear-bottom 96-well plates and optimized for use on the Cellomics “ArrayScan II” platform for a quantitative calculation of histone acetylation. The protocol uses a polyclonal rabbit antibody, specifically binding to acetylated lysine 9+14 of human histone H3 on fixed cells with an Alexa Fluor 488 labeled goat ant rabbit-IgG used for counterstaining (modified from Braunger et al. MCR annual conference 2003, Abstract 4556).
5×10^3 HeLa cervical carcinoma cells/well (ATCC CCL-2) in 200 μl Dulbecco's modified Eagle's medium (DMEM) containing 10% fetal calf serum are seeded at day 1 in Packard view plates and incubated for 24 h under standard cell culture conditions. On day 2, 2 μl test compound (100× final concentration) is added and incubation continued for further 24 h. On day 3, the culture medium is discarded and attached cells fixed for 15 min at room temperature by addition of 100 μl fixation buffer (3.7% v:v formaldehyde in phosphate buffered saline/PBS). After discarding the fixation buffer and one wash with PBS, cells are permeabilized at room temperature by addition of 100 μl/well permeabilization buffer (30.8 mM NaCl, 0.54 mM Na2HPO4, 0.31 mM KH2PO4, 5% v:v Triton X-100) for 15 min at room temperature. After discarding the permeabilization buffer and washing twice with 100 μl/well blocking solution (PBS with 0.05% v:v Tween 20 and 5% w:v milk powder) at room temperature, the 1st antibody (anti-K9+14 histone H3 antibody, Calbiochem No. 382158) in blocking solution (50 μl/well) is added. After incubation for 1 h at 37° C., the wells are washed twice at room temperature with 100 μl/well blocking solution before addition of the 2nd antibody (goat-anti-rabbit Alexa Fluor 488; MoBiTec No. A-11008) in blocking solution (50 μl/well). After further incubation for 1 h at 37° C., wells are washed twice with 100 μl/well blocking solution room temperature. Finally, 100 d/well PBS are added and image analysis performed on the Cellomics “ArrayScan II” platform. For calculation of EC50 values, the nuclear fluorescence in cells treated with and without a reference HDAC inhibitor (eg NVP-LBH-589) are taken as a positive and negative control. For EC50 determination, the percentage of positive cells is determined and EC50 calculation done from concentration-effect curves by means of non-linear regression.

Data set [2] has as its system HeLa cervical carcinoma cell line. In words: Cellular cytotoxicity assay (Alamar Blue / Resazurin). The conditions noted are these: Homo sapiens; HeLa cells, 48 hours incubation; read-out: IC50 (anti-proliferative/cytotoxic potency). It is filed as cell-based. The protocol:
The anti-proliferative activity of the histone deacetylase inhibitory compounds as described herein, is evaluated with the HeLa cervical carcinoma cell line (ATCC CCL2) using the Alamar Blue (Resazurin) cell viability assay (O'Brien et al. Eur J Biochem 267, 5421-5426, 2000). Resazurin is reduced to the fluorescent resorufin by cellular dehydrogenase activity, correlating with viable, proliferating cells. Test compounds are dissolved as 10 mM solutions in dimethylsulfoxide (DMSO) and subsequently diluted in semi-logarithmic steps. HeLa cells are seeded into 96 well flat bottom plates at a density of 3000 cells per well in a volume of 200 μl per well. 24 hours after seeding 1 μl each of the compound dilutions are added into each well of the 96 Well plate. Each compound dilution is tested as quadruplicates. Wells containing untreated control cells are filled with 200 μl DMEM medium containing 0.5% v:v DMSO. The cells are then incubated with the substances for 48 hours at 37° C. in a humidified atmosphere containing 5% carbon dioxide. To determine the viability of the cells, 20 μl of an Resazurin solution (Sigma; 90 mg/l) are added. After 4 hours incubation at 37° C. the fluorescence is measured at an extinction of 544 nm and an emission of 590 nm. For the calculation of the cell viability the emission value from untreated cells is set as 100% viability and the emission rates of treated cells are set in relation to the values of untreated cells. Viabilites are expressed as % values. The corresponding IC50 values of the compounds for cytotoxic activity are determined from the concentration-effect curves by means of non-linear regression.

Consider `Cn1cc(-c2ccc(S(=O)(=O)n3ccc(/C=C/C(=O)NO)c3)cc2)cn1` [Compound 2, (E)-N-Hydroxy-3-{1-[4-(1-methyl-1H-pyrazol-4-yl)-benzenesulfonyl]-1H-pyrrol-3-yl}-acrylamide], for which, in data set [1], the EC50 fell in the range of 280 to 5300 nM. For the same compound, the IC50 in data set [2] lay in the range of 78 to 2300 nM.
`NCC1(S(=O)(=O)n2ccc(/C=C/C(=O)Nc3ccccc3N)c2)C=CC(c2ccccc2)=CC1` (stereo not shown) [Compound 93, (E)-3-[1-(4-Aminomethyl-biphenyl-4-sulfonyl)-1H-pyrrol-3-yl]-N-(2-amino-phenyl)-acrylamide] returned a melting point of 278 to 280 °C.
Same read-out and setting: with `CN(C)CC1(S(=O)(=O)n2ccc(/C=C/C(=O)Nc3ccccc3N)c2)C=CC(c2ccccc2)=CC1` (stereo not shown) [Compound 47, (E)-N-(2-Amino-phenyl)-3-[1-(4-dimethylaminomethyl-biphenyl-4-sulfonyl)-1H-pyrrol-3-yl]-acrylamide] the figure was 211 to 216 °C; with `Cn1cc(-c2cccc(S(=O)(=O)n3ccc(/C=C/C(=O)Nc4ccccc4N)c3)c2)cn1` [Compound 15, (E)-N-(2-Amino-phenyl)-3-{1-[3-(1-methyl-1H-pyrazol-4-yl)-benzenesulfonyl]-1H-pyrrol-3-yl}-acrylamide], 193 to 197 °C.
Turning to `COc1ccc(-c2ccc(S(=O)(=O)n3ccc(/C=C/C(=O)Nc4ccccc4N)c3)cc2)cn1` [Compound 5, (E)-N-(2-Amino-phenyl)-3-{1-[4-(6-methoxy-pyridin-3-yl)-benzenesulfonyl]-1H-pyrrol-3-yl}-acrylamide], the EC50 in data set [1] is 280 to 5300 nM. The IC50 in data set [2] was 78 to 2300 nM.
For `Cn1cc(-c2ccc(S(=O)(=O)n3ccc(/C=C/C(=O)Nc4ccccc4N)c3)cc2)cn1` [Compound 7, (E)-N-(2-Amino-phenyl)-3-{1-[4-(1-methyl-1H-pyrazol-4-yl)-benzenesulfonyl]-1H-pyrrol-3-yl}-acrylamide], in that order: 280 to 5300 nM and 78 to 2300 nM.
Turning to `CN(C)Cc1ccc(-c2cccc(S(=O)(=O)n3ccc(/C=C/C(=O)NO)c3)c2)cc1` [Compound 37, (E)-3-[1-(4′-Dimethylaminomethyl-biphenyl-3-sulfonyl)-1H-pyrrol-3-yl]-N-hydroxy-acrylamide], the EC50 in data set [1] is 27 to 4400 nM.
Same read-out and setting: then `CN1CCN(c2cc(-c3cccc(S(=O)(=O)n4ccc(/C=C/C(=O)NO)c4)c3)ccn2)CC1` [Compound 33, (E)-N-Hydroxy-3-(1-{3-[2-(4-methyl-piperazin-1-yl)-pyridin-4-yl]-benzenesulfonyl}-1H-pyrrol-3-yl)-acrylamide], with 27 to 4400 nM; and `Cn1cc(-c2cccc(S(=O)(=O)n3ccc(/C=C/C(=O)NO)c3)c2)cn1` [Compound 12, (E)-N-Hydroxy-3-(1-[3-(1-methyl-1H-pyrazol-4-yl)-benzenesulfonyl]-1H-pyrrol-3-yl)-acrylamide], with 27 to 4400 nM.
Same read-out and setting: with `O=C(/C=C/c1ccn(S(=O)(=O)c2cc(-c3ccccc3)ccc2CCN2CCOCC2)c1)NO` [Compound 16, (E)-N-Hydroxy-3-{1-[4-(2-morpholin-4-yl-ethyl)-biphenyl-3-sulfonyl]-1H-pyrrol-3-yl}-acrylamide] the figure was 27 to 4400 nM; with `CS(=O)(=O)Nc1cccc(-c2ccc(S(=O)(=O)n3ccc(/C=C/C(=O)Nc4ccccc4N)c3)cc2)c1` [Compound 59, (E)-N-(2-Amino-phenyl)-3-[1-(3′-methanesulfonylamino-biphenyl-4-sulfonyl)-1H-pyrrol-3-yl]-acrylamide], 27 to 4400 nM.
For the compound `Nc1ccc(-c2ccc(S(=O)(=O)n3ccc(C=CC(=O)NO)c3)cc2)cn1` [Compound 4, (E)-3-∴1-[4-(6-Amino-pyridin-3-yl)-benzenesulfonyl]-1H-pyrrol-3-yl)-N-hydroxy-acrylamide], the EC50 in data set [1] lay in the range of 280 to 5300 nM. The IC50 in data set [2] was 78 to 2300 nM.
`O=C(/C=C/c1ccn(S(=O)(=O)c2ccc(-c3ccc(OCCN4CCOCC4)cc3)s2)c1)NO` [Compound 56, (E)-N-Hydroxy-3-(1-{5-[4-(2-morpholin-4-yl-ethoxy)-phenyl]-thiophene-2-sulfonyl}-1H-pyrrol-3-yl)-acrylamide]: the EC50 in data set [1] lay in the range of 27 to 4400 nM.
`Cn1ccc2cc(-c3ccc(S(=O)(=O)n4ccc(/C=C/C(=O)NO)c4)cc3)ccc21` [Compound 1, (E)-N-Hydroxy-3-{1-[4-(1-methyl-1H-indol-5-yl)-benzenesulfonyl]-1H-pyrrol-3-yl}-acrylamide]: the EC50 in data set [1] is 280 to 5300 nM. The IC50 in data set [2] was 78 to 2300 nM.
In the case of `COc1ccc(-c2ccc(S(=O)(=O)n3ccc(/C=C/C(=O)NO)c3)cc2)cn1` [Compound 3, (E)-N-Hydroxy-3-{1-[4-(6-methoxy-pyridin-3-yl)-benzenesulfonyl]-1H-pyrrol-3-yl}-acrylamide], the EC50 in data set [1] fell in the range of 280 to 5300 nM. The IC50 in data set [2] was in the range of 78 to 2300 nM.
Regarding `CS(=O)(=O)Nc1ccc(-c2ccc(S(=O)(=O)n3ccc(/C=C/C(=O)NO)c3)cc2)cc1` [Compound 23, (E)-N-Hydroxy-3-[1-(4′-methanesulfonylamino-biphenyl-4-sulfonyl)-1H-pyrrol-3-yl]-acrylamide], the EC50 in data set [1] fell in the range of 27 to 4400 nM.
Still for that read-out and setting: then `O=C(/C=C/c1ccn(S(=O)(=O)c2ccc(-c3ccc(OCCCN4CCOCC4)cc3)s2)c1)NO` [Compound 57, (E)-N-Hydroxy-3-(1-{5-[4-(3-morpholin-4-yl-propoxy)-phenyl]-thiophene-2-sulfonyl}-1H-pyrrol-3-yl)-acrylamide], with 27 to 4400 nM; and `O=C(/C=C/c1ccn(S(=O)(=O)c2ccc(-c3ccc(CN4CCOCC4)cc3)s2)c1)NO` [Compound 54, (E)-N-Hydroxy-3-{1-[5-(4-morpholin-4-ylmethyl-phenyl)-thiophene-2-sulfonyl]-1H-pyrrol-3-yl}-acrylamide], with 27 to 4400 nM.
Turning to `Nc1ccc(-c2ccc(S(=O)(=O)n3ccc(/C=C/C(=O)Nc4ccccc4N)c3)cc2)cn1` [Compound 6, (E)-N-(2-Amino-phenyl)-3-{1-[4-(6-amino-pyridin-3-yl)-benzenesulfonyl]-1H-pyrrol-3-yl}-acrylamide], the EC50 in data set [1] fell in the range of 280 to 5300 nM. In addition, in data set [2], the IC50 lay in the range of 78 to 2300 nM.
Turning to `CN(C)Cc1ccc(-c2ccc(S(=O)(=O)n3ccc(/C=C/C(=O)NO)c3)cc2)cc1` [Compound 26, (E)-3-[1-(4′-Dimethylaminomethyl-biphenyl-4-sulfonyl)-1H-pyrrol-3-yl]-N-hydroxy-acrylamide], in data set [1], the EC50 lay in the range of 27 to 4400 nM.
Still for that read-out and setting: with `COCCNCc1ccc(-c2cccc(S(=O)(=O)n3ccc(C=CC(=O)NO)c3)c2)cc1` [Compound 58, (E)-N-Hydroxy-3-(1-{4′-[(2-methoxy-othylamino)-methyl]-biphenyl-3-sulfonyl}-1H-pyrrol-3-yl)-acrylamide] the figure was 27 to 4400 nM; with `CN(C)CCNC(=O)c1ccc(-c2ccc(S(=O)(=O)n3ccc(C=CC(=O)NO)c3)cc2)cc1` [Compound 24, 4′-[3-(E)-2-Hydroxycarbamoyl-vinyl)-pyrrole-1-sulfonyl]-biphenyl-4-carboxylic acid (2-dimethylamino-othyl)-amide], 27 to 4400 nM; with `O=C(/C=C/c1ccn(S(=O)(=O)c2ccc(-c3ccc(CCN4CCOCC4)cc3)cc2)c1)NO` [Compound 8, (E)-N-Hydroxy-3-{1-[4′-(2-morpholin-4-yl-ethyl)-biphenyl-4-sulfonyl]-1H-pyrrol-3-yl}-acrylamide], 27 to 4400 nM.
The same measure, in the same setting: with `O=C(/C=C/c1ccn(S(=O)(=O)c2cccc(-c3ccc(CN4CCOCC4)cc3)c2)c1)NO` [Compound 36, (E)-N-Hydroxy-3-[1-(4′-morpholin-4-ylmethyl-biphenyl-3-sulfonyl)-1H-pyrrol-3-yl]-acrylamide] the figure was 27 to 4400 nM.

Values taken from patent US7666868B2, “N-sulphonylpyrroles and their use as histone deacetylase inhibitors” (4SC AG, priority 2005, dated 2010).
